Data from patent US9346815B2, “5-chloro-2-difluoromethoxyphenyl pyrazolopyrimidine compounds, compositions and methods of use thereof” (Genentech, Inc., priority 2014, dated 2016).

Legend:
[1] = molecular target: isolated recombinant JAK1 kinase domain (Homo sapiens (Human), UniProt P23458); test: JAK1 enzyme assay (Caliper LabChip, peptide phosphorylation); assay type: biochemical; conditions: isolated recombinant JAK1 kinase domain, 25 μM ATP
[2] = tested on: JAK1-dependent STAT6 phosphorylation downstream of IL-13 stimulation in TF-1 human erythroleukemia cells; test: JAK1 pathway assay in TF-1 cells (IL-13-pSTAT6, MSD); assay type: cell-based; conditions: Homo sapiens, TF-1, TF-1 cells, read-out: IL13-pSTAT6 EC50_TF-1
Procedure: JAK1 Pathway Assay in Cell Lines was Carried Out as Follows:
Inhibitor potency (EC50) was determined in cell-based assays designed to measure JAK1 dependent STAT phosphorylation.
In one assay approach, TF-1 human erythroleukemia cells obtained from the American Type Culture Collection (ATCC; Manassas, Va.) were used to measure JAK1-dependent STAT6 phosphorylation downstream of IL-13 stimulation. Prior to use in the assays, TF-1 cells were starved of GM-CSF overnight in OptiMEM medium (Life Technologies, Grand Island, N.Y.) supplemented with 0.5% charcoal/dextran stripped fetal bovine serum (FBS), 0.1 mM non-essential amino acids (NEAA), and 1 mM sodium pyruvate. The assays were run in 384-well plates in serum-free OptiMEM medium using 300,000 cells per well. In a second assay approach, BEAS-2B human bronchial epithelial cells obtained from ATCC were plated at 100,000 cells per well of a 96-well plate one day prior to the experiment. The BEAS-2B assay was run in complete growth medium (bronchial epithelial basal medium plus bulletkit; Lonza; Basel, Switzerland).
Test compounds were serially diluted 1:2 in DMSO and then diluted 1:50 in medium just before use. Diluted compounds were added to the cells, for a final DMSO concentration of 0.2%, and incubated for 30 min (for the TF-1 assay) or 1 hr (for the BEAS-2B assay) at 37° C. Then, cells were stimulated with human recombinant cytokine at their respective EC90 concentrations, as previously determined for each individual lot. Cells were stimulated with IL-13 (R&D Systems, Minneapolis, Minn.) for 15 min at 37° C. The TF-1 cell reactions were stopped by the direct addition of 10× lysis buffer (Cell Signaling Technologies, Danvers, Mass.), whereas the BEAS-2B cell incubations were halted by the removal of medium and addition of 1× lysis buffer. The resultant samples were frozen in the plates at −80° C. Compound mediated inhibition of STAT6 phosphorylation was measured in the cell lysates using MesoScale Discovery (MSD) technology (Gaithersburg, Md.).

[3] = molecular target: isolated recombinant JAK2 kinase domain (Homo sapiens (Human), UniProt O60674); test: JAK2 enzyme assay (Caliper LabChip, peptide phosphorylation); assay type: biochemical; conditions: 25 μM ATP
Chain of isolated recombinant JAK2 kinase domain (O60674 849-1124): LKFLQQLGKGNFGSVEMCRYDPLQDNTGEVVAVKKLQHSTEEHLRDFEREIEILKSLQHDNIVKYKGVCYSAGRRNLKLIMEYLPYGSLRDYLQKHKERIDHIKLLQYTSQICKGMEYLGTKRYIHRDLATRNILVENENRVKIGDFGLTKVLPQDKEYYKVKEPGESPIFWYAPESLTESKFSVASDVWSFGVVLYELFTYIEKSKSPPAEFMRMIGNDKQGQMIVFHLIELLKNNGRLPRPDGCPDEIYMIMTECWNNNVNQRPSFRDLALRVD

Chain of isolated recombinant JAK1 kinase domain (P23458 875-1153): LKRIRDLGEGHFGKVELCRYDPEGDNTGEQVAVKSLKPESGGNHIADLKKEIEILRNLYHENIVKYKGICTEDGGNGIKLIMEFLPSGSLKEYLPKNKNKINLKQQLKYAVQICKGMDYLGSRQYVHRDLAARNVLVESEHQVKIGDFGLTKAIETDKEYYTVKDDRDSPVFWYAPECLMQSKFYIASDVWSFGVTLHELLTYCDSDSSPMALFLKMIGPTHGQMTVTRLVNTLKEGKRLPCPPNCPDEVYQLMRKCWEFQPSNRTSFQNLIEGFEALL

| Structure (SMILES) | Ki [1] [nM] | EC50 [2] [nM] | Ki [3] [nM] |
| --- | --- | --- | --- |
| NC(=O)CCN1CCC(n2cc(NC(=O)c3c(N)nn4cccnc34)c(-c3cc(Cl)ccc3OC(F)F)n2)CC1 [Example 165, 2-amino-N-[1-[1-(3-amino-3-oxo-propyl)-4-piperidyl]-3-[5-chloro-2-(difluoromethoxy)phenyl]pyrazol-4-yl]pyrazolo[1,5-a]pyrimidine-3-carboxamide] | 0.38 | 6.9 | 0.15 |
| O=C(Nc1cn(C2CCN(CCCC(=O)N3CCOCC3)CC2)nc1-c1cc(Cl)ccc1OC(F)F)c1cnn2cccnc12 [Example 169, N-[3-[5-chloro-2-(difluoromethoxy)phenyl]-1-[1-(4-morpholino-4-oxo-butyl)-4-piperidyl]pyrazol-4-yl]pyrazolo[1,5-a]pyrimidine-3-carboxamide] | 1.16 | 6.8 | 0.22 |
| Nc1nn2cccnc2c1C(=O)Nc1cn(C2CCN(CCCN3CCCC3=O)CC2)nc1-c1cc(Cl)ccc1OC(F)F [Example 146, 2-amino-N-[3-[5-chloro-2-(difluoromethoxy)phenyl]-1-[1-[3-(2-oxopyrrolidin-1-yl)propyl]-4-piperidyl]pyrazol-4-yl]pyrazolo[1,5-a]pyrimidine-3-carboxamide] | 0.45 | 3.9 | 0.13 |
| CN(Cc1ccc2ccccc2c1)C1CCN(C(=O)Cn2cc(NC(=O)c3cnn4cccnc34)c(-c3cc(Cl)ccc3OC(F)F)n2)CC1 [Example 130, N-[3-[5-chloro-2-(difluoromethoxy)phenyl]-1-[2-[4-[methyl(2-naphthylmethyl)amino]-1-piperidyl]-2-oxo-ethyl]pyrazol-4-yl]pyrazolo[1,5-a]pyrimidine-3-carboxamide] | 1.1 | 32.3 | 2.91 |
| O=C(Nc1cn(CC(=O)N2CC3(CCNC3)C2)nc1-c1cc(Cl)ccc1OC(F)F)c1cnn2cccnc12 [Example 220, N-[3-[5-chloro-2-(difluoromethoxy)phenyl]-1-[2-(2,7-diazaspiro[3.4]octan-2-yl)-2-oxo-ethyl]pyrazol-4-yl]pyrazolo[1,5-a]pyrimidine-3-carboxamide] | 1.22 | 1170 | 2.71 |
| CN(CCCN1CCC(n2cc(NC(=O)c3c(N)nn4cccnc34)c(-c3cc(Cl)ccc3OC(F)F)n2)CC1)C(=O)c1ccccc1 [Example 151, 2-amino-N-[1-[1-[3-[benzoyl(methyl)amino]propyl]-4-piperidyl]-3-[5-chloro-2-(difluoromethoxy)phenyl]pyrazol-4-yl]pyrazolo[1,5-a]pyrimidine-3-carboxamide] | 2 | 93.8 | 0.42 |
| O=C(Nc1sc(-c2ccncc2)nc1-c1cc(Cl)ccc1OC(F)F)c1cnn2cccnc12 [Example 254, N-[4-[5-chloro-2-(difluoromethoxy)phenyl]-2-(4-pyridyl)thiazol-5-yl]pyrazolo[1,5-a]pyrimidine-3-carboxamide] | 1.63 | 117 | 0.77 |
| CN(C)C1CCN(C(=O)c2nc(-c3cc(Cl)ccc3OC(F)F)c(NC(=O)c3cnn4cccnc34)s2)CC1 [Example 265, N-[4-[5-chloro-2-(difluoromethoxy)phenyl]-2-[4-(dimethylamino)piperidine-1-carbonyl]thiazol-5-yl]pyrazolo[1,5-a]pyrimidine-3-carboxamide] | 3.63 | 22.8 | 4.29 |
| CN1CCC2(CCN(C(=O)Cn3cc(NC(=O)c4cnn5cccnc45)c(-c4cc(Cl)ccc4OC(F)F)n3)C2)C1 (stereo not drawn) [Example 212, N-[3-[5-chloro-2-(difluoromethoxy)phenyl]-1-[2-(7-methyl-2,7-diazaspiro[4.4]nonan-2-yl)-2-oxo-ethyl]pyrazol-4-yl]pyrazolo[1,5-a]pyrimidine-3-carboxamide] | 0.91 | 30.6 | 1.93 |
| Nc1nn2cccnc2c1C(=O)Nc1cn(C2CCN(CCCCOCCc3ccccc3)CC2)nc1-c1cc(Cl)ccc1OC(F)F [Example 181, 2-amino-N-[3-[5-chloro-2-(difluoromethoxy)phenyl]-1-[1-[4-(2-phenylethoxy)butyl]-4-piperidyl]pyrazol-4-yl]pyrazolo[1,5-a]pyrimidine-3-carboxamide] | 1.99 | 95.6 | 0.48 |
| CN(CC(F)(F)F)C1CCN(C(=O)c2ccc(-n3cc(NC(=O)c4cnn5cccnc45)c(-c4cc(Cl)ccc4OC(F)F)n3)cc2)CC1 [Example 303, N-[3-[5-chloro-2-(difluoromethoxy)phenyl]-1-[4-[4-[methyl(2,2,2-trifluoroethyl)amino]piperidine-1-carbonyl]phenyl]pyrazol-4-yl]pyrazolo[1,5-a]pyrimidine-3-carboxamide] | 1.9 | 78.4 | 3.28 |
| COc1ccc(CCN(C)C2CCN(C(=O)Cn3cc(NC(=O)c4cnn5cccnc45)c(-c4cc(Cl)ccc4OC(F)F)n3)CC2)cc1 [Example 95, N-[3-[5-chloro-2-(difluoromethoxy)phenyl]-1-[2-[4-[2-(4-methoxyphenyl)ethyl-methyl-amino]-1-piperidyl]-2-oxo-ethyl]pyrazol-4-yl]pyrazolo[1,5-a]pyrimidine-3-carboxamide] | 0.8 | 17.3 | 2.6 |
| NC(=O)CCCN1CCC(n2cc(NC(=O)c3cnn4cccnc34)c(-c3cc(Cl)ccc3OC(F)F)n2)CC1 [Example 170, N-[1-[1-(4-amino-4-oxo-butyl)-4-piperidyl]-3-[5-chloro-2-(difluoromethoxy)phenyl]pyrazol-4-yl]pyrazolo[1,5-a]pyrimidine-3-carboxamide] | 1.67 | 11.4 | 0.25 |
| Nc1nn2cccnc2c1C(=O)Nc1cn(C2CCN(CCCCc3ccccc3)CC2)nc1-c1cc(Cl)ccc1OC(F)F [Example 179, 2-amino-N-[3-[5-chloro-2-(difluoromethoxy)phenyl]-1-[1-(4-phenylbutyl)-4-piperidyl]pyrazol-4-yl]pyrazolo[1,5-a]pyrimidine-3-carboxamide] | 3.04 | 130 | 0.9 |
| CC(=O)N1CCC(CN2CCC(n3cc(NC(=O)c4c(N)nn5cccnc45)c(-c4cc(Cl)ccc4OC(F)F)n3)CC2)CC1 [Example 173, N-[1-[1-[(1-acetyl-4-piperidyl)methyl]-4-piperidyl]-3-[5-chloro-2-(difluoromethoxy)phenyl]pyrazol-4-yl]-2-amino-pyrazolo[1,5-a]pyrimidine-3-carboxamide] | 0.58 | 4.8 | 0.13 |
| CN1CCC2CN(C(=O)Cn3cc(NC(=O)c4cnn5cccnc45)c(-c4cc(Cl)ccc4OC(F)F)n3)CCC21 (stereo not drawn) [Example 29, N-[3-[5-chloro-2-(difluoromethoxy)phenyl]-1-[2-(1-methyl-3,3a,4,6,7,7a-hexahydro-2H-pyrrolo[3,2-c]pyridin-5-yl)-2-oxo-ethyl]pyrazol-4-yl]pyrazolo[1,5-a]pyrimidine-3-carboxamide] | 1.01 | 5.6 | 1.76 |
| CCCCN(CC(F)(F)F)C1CCN(C(=O)Cn2cc(NC(=O)c3cnn4cccnc34)c(-c3cc(Cl)ccc3OC(F)F)n2)CC1 [Example 115, N-[1-[2-[4-[butyl(2,2,2-trifluoroethyl)amino]-1-piperidyl]-2-oxo-ethyl]-3-[5-chloro-2-(difluoromethoxy)phenyl]pyrazol-4-yl]pyrazolo[1,5-a]pyrimidine-3-carboxamide] | 1.28 | 57.7 | 2.48 |
| Nc1nn2cccnc2c1C(=O)Nc1cn(C2CCN(CCCO)CC2)nc1-c1cc(Cl)ccc1OC(F)F [Example 176, 2-amino-N-[3-[5-chloro-2-(difluoromethoxy)phenyl]-1-[1-(3-hydroxypropyl)-4-piperidyl]pyrazol-4-yl]pyrazolo[1,5-a]pyrimidine-3-carboxamide] | 0.68 | 12.7 | 0.12 |
| O=C(Nc1cn(CC(=O)N2CC[C@@H]3CNCC[C@@H]32)nc1-c1cc(Cl)ccc1OC(F)F)c1cnn2cccnc12 [Example 20, N-[1-[2-[(3aR,7aS)-2,3,3a,4,5,6,7,7a-octahydropyrrolo[3,2-c]pyridin-1-yl]-2-oxo-ethyl]-3-[5-chloro-2-(difluoromethoxy)phenyl]pyrazol-4-yl]pyrazolo[1,5-a]pyrimidine-3-carboxamide] | 0.51 | 344 | 1.21 |
| Nc1nn2cccnc2c1C(=O)Nc1cn(CC(=O)N2CCNCC2)nc1-c1cc(Cl)ccc1OC(F)F [Example 249, 2-amino-N-[3-[5-chloro-2-(difluoromethoxy)phenyl]-1-(2-oxo-2-piperazin-1-yl-ethyl)pyrazol-4-yl]pyrazolo[1,5-a]pyrimidine-3-carboxamide] | 0.73 | 32.3 | 0.44 |
